Assays:
K562 cells [1] = assay: In vitro antiproliferative assay (CCK-8), K562; type: cell-based; details: Homo sapiens
Procedure: (§1) The proliferation of cancer cells was tested by CCK-8 assay. Briefly, cells were seeded in 96-well plate with about 5 × 10^3 cells in each well. The cells were treated with tested compounds after 24 h of incubation. CCK-8 reagent ([…]) was added to each well after 72 h of incubation, and cells were incubated at 37 °C for 4 h. The light absorbance at 450 nm was measured by using an Opsys microplate reader (Dynex Technologies, Chantilly, VA, USA).

A2780 = assay: In vitro antiproliferative assay (CCK-8), A2780; type: cell-based; details: Homo sapiens, CCK-8, 72 h
Procedure: as §1

MDA-MB-468 = assay: In vitro antiproliferative assay (CCK-8), MDA-MB-468; type: cell-based; details: Homo sapiens, CCK-8, 72 h
Procedure: (§2) Compound L20 with good performances in both enzyme and K562 cell inhibitory tests were selected for further antiproliferative assay against various cell lines. K562, U266, U937, C6, Fadu, MDA-MB-231, MDA-MB-468, A549, A2780 and HepG2 cell lines were used in the cell-based anticancer evaluation of L20.
as §1, with “USA). Results are illustrated as percent of cell viability normalised to DMSO-treated control cells.” for “USA).”

MDA-MB-231 = assay: In vitro antiproliferative assay (CCK-8), MDA-MB-231; type: cell-based; details: Homo sapiens, CCK-8, 72 h
Procedure: as §2
as §1, with “USA). Results are illustrated as percent of cell viability normalised to DMSO-treated control cells.” for “USA).”

K562 cells [2] = assay: Cell cycle analysis by flow cytometry (PI); details: 24 h, first peak in Figure 5
Procedure: After treatment, cells were collected and fixed with 70% pre-cold ethanol in PBS and stored at −20 °C overnight. Then washed the cells with PBS twice, and incubated with 100 µg/mL RNase I (Solarbio, China) at 37 °C for 1 h, stained with propidium iodide (PI, 10 µg/mL, Solarbio, China) for 30 min avoid light at room temperature. Finally, DNA content was measured by flow cytometry (FACSAriaIII, Becton Dickinson, USA). The data were analysed and fitted by ModFit software.

HepG2 = assay: In vitro antiproliferative assay (CCK-8), HepG2; type: cell-based; details: Homo sapiens, CCK-8, 72 h
Procedure: as §1

K562 cells [3] = assay: Cell apoptosis analysis by flow cytometry (Annexin V-BV421 / 7-AAD); details: 24 h, control 1.14%
Procedure: Cells were incubated with Annexin V-BV421 (Becton Dickinson, USA) and 7-AAD (Becton Dickinson, USA) double labelling for 30 min in the dark at room temperature and measured by flow cytometry (FACSAriaIII, Becton Dickinson, USA). The data was analysed using Flowjo-V10 software.

HDAC3 = molecular target: T1, HDAC3 (Homo sapiens, UniProt O15379); assay: HDAC enzyme inhibitory selectivity test, HDAC3; type: biochemical
T1 construct: purchased BPS Bioscience
T1 sequence (O15379 whole entry): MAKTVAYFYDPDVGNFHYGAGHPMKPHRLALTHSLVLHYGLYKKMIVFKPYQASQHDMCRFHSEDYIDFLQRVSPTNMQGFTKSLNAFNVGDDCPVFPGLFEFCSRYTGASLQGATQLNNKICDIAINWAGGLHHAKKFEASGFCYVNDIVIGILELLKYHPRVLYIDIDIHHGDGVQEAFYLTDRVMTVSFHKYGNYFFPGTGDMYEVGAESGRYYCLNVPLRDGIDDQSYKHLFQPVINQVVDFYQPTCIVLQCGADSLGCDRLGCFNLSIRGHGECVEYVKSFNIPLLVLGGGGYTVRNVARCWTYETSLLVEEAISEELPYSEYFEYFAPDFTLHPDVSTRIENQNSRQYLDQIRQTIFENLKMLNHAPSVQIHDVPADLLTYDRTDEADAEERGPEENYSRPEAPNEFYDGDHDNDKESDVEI
T1 sequence (Q9Y618 395-489 partner limits assumed): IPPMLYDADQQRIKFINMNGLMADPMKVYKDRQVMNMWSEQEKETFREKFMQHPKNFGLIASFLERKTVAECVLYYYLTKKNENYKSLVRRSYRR
Procedure: (§3) Therefore, molecule L20 was evaluated in the HDAC enzyme inhibitory selectivity test against HDAC1, 2, 3 and 6 (Table 2).
(§4) All HDAC enzymes were purchased from BPS Bioscience. In short, 60 µL of recombinant HDAC enzyme solution was mixed with various concentrations of test compound (40 µL), and then incubated at 37 °C for 30 minutes. The reaction was terminated by adding 100 µL of imaging agent containing trypsin and trichostatin A (TSA). After standing for 20 min, the fluorescence intensity was measured at the excitation and emission wavelengths of 360 and 460 nm with a microplate reader. The inhibition rate was calculated from the fluorescence intensity readings of the test wells relative to the control wells, and the IC50 curve and value were determined by GraphPad Prism 6.0 software.

HDAC2 = molecular target: T2, HDAC2 (Homo sapiens, UniProt Q92769); assay: HDAC enzyme inhibitory selectivity test, HDAC2; type: biochemical
T2 construct: purchased BPS Bioscience
T2 sequence (Q92769 whole entry): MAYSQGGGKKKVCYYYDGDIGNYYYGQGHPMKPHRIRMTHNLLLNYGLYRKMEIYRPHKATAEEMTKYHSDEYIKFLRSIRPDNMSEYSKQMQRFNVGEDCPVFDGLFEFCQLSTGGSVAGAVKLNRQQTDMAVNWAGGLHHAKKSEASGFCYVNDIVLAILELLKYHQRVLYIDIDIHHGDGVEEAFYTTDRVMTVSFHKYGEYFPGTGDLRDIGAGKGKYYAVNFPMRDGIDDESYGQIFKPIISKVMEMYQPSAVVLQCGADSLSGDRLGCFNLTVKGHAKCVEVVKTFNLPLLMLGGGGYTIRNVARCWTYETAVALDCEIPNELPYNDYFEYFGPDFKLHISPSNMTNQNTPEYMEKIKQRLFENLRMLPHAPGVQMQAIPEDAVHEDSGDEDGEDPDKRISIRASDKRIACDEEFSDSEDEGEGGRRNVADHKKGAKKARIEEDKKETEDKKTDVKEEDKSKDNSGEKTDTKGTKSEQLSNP
Procedure: as §3, §4

U266 = assay: In vitro antiproliferative assay (CCK-8), U266; type: cell-based; details: Homo sapiens, U-266, CCK-8, 72 h
Procedure: as §1

U937 = assay: In vitro antiproliferative assay (CCK-8), U937; type: cell-based; details: Homo sapiens, U-937, CCK-8, 72 h
Procedure: as §1

A549 = assay: In vitro antiproliferative assay (CCK-8), A549; type: cell-based; details: Homo sapiens, CCK-8, 72 h
Procedure: as §1

[4] = tested on: Hela nucleus extract containing a mixture of HDAC isoforms; assay: HDAC enzyme inhibitory screening against Hela nucleus extract; type: biochemical; details: at concentration of 1.0 µM, mean of three experiments
Procedure: The synthesised molecules were firstly screened against Hela nucleus extract containing a mixture of HDAC isoforms.
as §4

Fadu = assay: In vitro antiproliferative assay (CCK-8), Fadu; type: cell-based; details: Homo sapiens, CCK-8, 72 h
Procedure: as §1

C6 = assay: In vitro antiproliferative assay (CCK-8), C6; type: cell-based; details: Rattus norvegicus, CCK-8, 72 h
Procedure: as §1

HDAC1 = molecular target: T3, HDAC1 (Homo sapiens, UniProt Q13547); assay: HDAC enzyme inhibitory selectivity test, HDAC1; type: biochemical
T3 construct: purchased BPS Bioscience
T3 sequence (Q13547 whole entry): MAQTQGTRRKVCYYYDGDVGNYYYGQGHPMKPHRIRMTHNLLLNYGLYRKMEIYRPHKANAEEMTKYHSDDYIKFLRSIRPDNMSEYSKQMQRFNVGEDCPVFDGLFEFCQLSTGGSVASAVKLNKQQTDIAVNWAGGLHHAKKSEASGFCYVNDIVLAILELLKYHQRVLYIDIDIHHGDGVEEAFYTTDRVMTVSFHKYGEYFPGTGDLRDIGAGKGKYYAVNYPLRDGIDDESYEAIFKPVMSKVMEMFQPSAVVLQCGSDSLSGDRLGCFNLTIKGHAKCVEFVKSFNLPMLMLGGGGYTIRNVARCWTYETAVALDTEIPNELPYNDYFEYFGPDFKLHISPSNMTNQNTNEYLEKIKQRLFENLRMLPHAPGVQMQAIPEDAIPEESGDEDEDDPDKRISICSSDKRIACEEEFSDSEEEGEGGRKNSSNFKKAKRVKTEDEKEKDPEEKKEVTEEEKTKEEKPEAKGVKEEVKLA
Procedure: as §3, §4

HDAC6 = molecular target: T4, HDAC6 (Homo sapiens, UniProt Q9UBN7); assay: HDAC enzyme inhibitory selectivity test, HDAC6; type: biochemical; details: mean of three experiments
T4 construct: purchased BPS Bioscience
T4 sequence (Q9UBN7 1-1215): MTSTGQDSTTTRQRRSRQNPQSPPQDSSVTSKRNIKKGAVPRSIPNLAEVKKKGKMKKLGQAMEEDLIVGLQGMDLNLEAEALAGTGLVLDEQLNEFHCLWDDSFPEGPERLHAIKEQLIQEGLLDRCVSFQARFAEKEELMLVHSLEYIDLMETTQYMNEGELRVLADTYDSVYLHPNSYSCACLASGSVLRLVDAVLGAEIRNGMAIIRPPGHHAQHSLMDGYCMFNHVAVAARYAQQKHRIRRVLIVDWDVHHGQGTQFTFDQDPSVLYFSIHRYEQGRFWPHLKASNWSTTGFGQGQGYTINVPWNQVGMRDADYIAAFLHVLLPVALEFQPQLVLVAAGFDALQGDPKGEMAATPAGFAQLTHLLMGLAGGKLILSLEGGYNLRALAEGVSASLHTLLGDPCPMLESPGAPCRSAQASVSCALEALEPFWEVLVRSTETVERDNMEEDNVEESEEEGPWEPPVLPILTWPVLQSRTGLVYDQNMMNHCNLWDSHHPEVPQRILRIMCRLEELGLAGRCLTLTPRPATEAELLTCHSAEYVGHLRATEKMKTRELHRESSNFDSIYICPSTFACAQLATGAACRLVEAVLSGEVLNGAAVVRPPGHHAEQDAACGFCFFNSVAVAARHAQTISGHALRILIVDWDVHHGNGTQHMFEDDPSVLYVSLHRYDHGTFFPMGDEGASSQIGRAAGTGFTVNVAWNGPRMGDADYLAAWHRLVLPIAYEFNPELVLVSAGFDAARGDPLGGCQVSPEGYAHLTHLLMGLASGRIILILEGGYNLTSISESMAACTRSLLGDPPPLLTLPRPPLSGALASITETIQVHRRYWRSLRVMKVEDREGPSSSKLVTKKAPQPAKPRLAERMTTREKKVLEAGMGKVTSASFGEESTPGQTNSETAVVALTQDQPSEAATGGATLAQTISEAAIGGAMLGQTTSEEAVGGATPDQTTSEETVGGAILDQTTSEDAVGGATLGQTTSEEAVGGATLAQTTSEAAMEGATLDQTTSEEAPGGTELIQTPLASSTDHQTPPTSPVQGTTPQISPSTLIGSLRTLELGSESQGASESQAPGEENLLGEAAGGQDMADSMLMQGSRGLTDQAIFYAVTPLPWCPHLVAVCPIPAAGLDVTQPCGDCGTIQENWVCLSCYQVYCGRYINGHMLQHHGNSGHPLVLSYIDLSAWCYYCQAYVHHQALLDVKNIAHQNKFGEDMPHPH
Procedure: as §3, §4

IC50 (K562 cells [1]; CCK-8, 72 h): 0.34 ± 0.02 µM | IC50 (A2780): 0.97 ± 0.02 µM | IC50 (MDA-MB-468): 2.23 ± 0.09 µM | IC50 (MDA-MB-231): 1.63 ± 0.06 µM | IC50 (HepG2): 3.17 ± 0.15 µM | selectivity index HDAC3 compared with HDAC6 (HDAC3; HDAC3 vs HDAC6): > 4608 | IC50 (HDAC3; mean of three experiments): 0.217 ± 0.008 µM | selectivity index HDAC2 compared with HDAC6 (HDAC2; HDAC2 vs HDAC6): > 392 | IC50 (HDAC2; mean of three experiments): 2.55 ± 0.079 µM | IC50 (U266): 0.28 ± 0.01 µM | IC50 (U937): 0.76 ± 0.03 µM | IC50 (A549): 1.06 ± 0.03 µM | HDACs percentage inhibitory rate [4]: 72.52 ± 1.26% | selectivity index HDAC1 compared with HDAC6 (HDAC1; HDAC1 vs HDAC6): > 1462 | IC50 (HDAC1; mean of three experiments): 0.684 ± 0.016 µM | IC50 (HDAC6): > 1000 µM
Structure (SMILES): COc1cc(Nc2nc(N3CCN(c4ncc(C(=O)NO)cn4)CC3)ncc2Cl)cc(OC)c1 [Compound L20, 2–(4-(5-chloro-4-((3,5-dimethoxyphenyl)amino)pyrimidin-2-yl)piperazin-1-yl)-N-hydroxypyrimidine-5-carboxamide]
inhibition at 1 µM (K562 cells [1]; at concentration of 1.0 µM, mean of three experiments, read-out: K562 percentage inhibitory rate): 74.2 ± 1.18% | G0/G1 phase ratio of K562 cells (K562 cells [2]; 1 µM): 19.34% | G0/G1 phase ratio of K562 cells (K562 cells [2]; 2 µM): 44.85% | apoptotic rate of K562 cells (K562 cells [3]; 1 µM): 2.51% | apoptotic rate of K562 cells (K562 cells [3]; 2 µM): 11.87% | apoptotic rate of K562 cells (K562 cells [3]; 4 µM): 17.60% | IC50 (Fadu): 1.42 ± 0.05 µM | IC50 (C6): 1.98 ± 0.1 µM
